Test results as given in PubChem BioAssay (NCI).
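Each compound was tested at five concentrations against cells in 96-well plates for 48 hours. TGI marks complete inhibition of growth.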

Legend:
Test in all cases: NCI-60 cell line screen, 48 h
NCI-H460 lung = tested on: NCI-H460 lung
SK-MEL-5 melanoma = tested on: SK-MEL-5 melanoma
SK-OV-3 ovarian = tested on: SK-OV-3 ovarian
MDA-MB-231 breast = tested on: MDA-MB-231 breast
NCI/ADR-RES ovarian = tested on: NCI/ADR-RES ovarian
MDA-MB-435 = tested on: MDA-MB-435
SF-268 CNS = tested on: SF-268 CNS
SK-MEL-28 melanoma = tested on: SK-MEL-28 melanoma
OVCAR-3 ovarian = tested on: OVCAR-3 ovarian
A549 NSCLC = tested on: A549 NSCLC
SF-295 CNS = tested on: SF-295 CNS
SR leukemia = tested on: SR leukemia
UO-31 renal = tested on: UO-31 renal
RXF 393 renal = tested on: RXF 393 renal
SW-620 colon = tested on: SW-620 colon
HOP-62 NSCLC = tested on: HOP-62 NSCLC
SNB-75 CNS = tested on: SNB-75 CNS
BT-549 breast = tested on: BT-549 breast
COLO 205 colon = tested on: COLO 205 colon
M14 melanoma = tested on: M14 melanoma
MCF7 breast = tested on: MCF7 breast
A498 renal = tested on: A498 renal
SK-MEL-2 melanoma = tested on: SK-MEL-2 melanoma
HCT-15 colon = tested on: HCT-15 colon
HCT-116 colon = tested on: HCT-116 colon
HOP-92 NSCLC = tested on: HOP-92 NSCLC
SN12C renal = tested on: SN12C renal
EKVX NSCLC = tested on: EKVX NSCLC
RPMI-8226 leukemia = tested on: RPMI-8226 leukemia
NCI-H23 lung = tested on: NCI-H23 lung
OVCAR-8 ovarian = tested on: OVCAR-8 ovarian
ACHN renal = tested on: ACHN renal
CCRF-CEM leukemia = tested on: CCRF-CEM leukemia
HS 578T breast = tested on: HS 578T breast
PC-3 prostate = tested on: PC-3 prostate
TK-10 renal = tested on: TK-10 renal
NCI-H522 lung = tested on: NCI-H522 lung
KM12 colon = tested on: KM12 colon
MDA-N = tested on: MDA-N
HT29 colon = tested on: HT29 colon
U251 CNS = tested on: U251 CNS
MALME-3M melanoma = tested on: MALME-3M melanoma
K-562 leukemia = tested on: K-562 leukemia
T-47D breast = tested on: T-47D breast
LOX IMVI melanoma = tested on: LOX IMVI melanoma
786-0 renal = tested on: 786-0 renal
OVCAR-5 ovarian = tested on: OVCAR-5 ovarian
OVCAR-4 ovarian = tested on: OVCAR-4 ovarian
CAKI-1 renal = tested on: CAKI-1 renal
SF-539 CNS = tested on: SF-539 CNS
UACC-257 melanoma = tested on: UACC-257 melanoma
UACC-62 melanoma = tested on: UACC-62 melanoma
IGROV1 ovarian = tested on: IGROV1 ovarian
SNB-19 CNS = tested on: SNB-19 CNS
DU-145 prostate = tested on: DU-145 prostate
MOLT-4 leukemia = tested on: MOLT-4 leukemia

Clc1ccc(Cl)c(Nc2ccnc(SCc3ccccc3)n2)c1
TGI (NCI-H460 lung): > 100 µM | TGI (SK-MEL-5 melanoma): > 100 µM | TGI (SK-OV-3 ovarian): > 100 µM | TGI (MDA-MB-231 breast): > 100 µM | TGI (NCI/ADR-RES ovarian): > 100 µM | TGI (MDA-MB-435): > 100 µM | TGI (SF-268 CNS): > 100 µM | TGI (SK-MEL-28 melanoma): > 100 µM | TGI (OVCAR-3 ovarian): > 100 µM | TGI (A549 NSCLC): > 100 µM | TGI (SF-295 CNS): > 100 µM | TGI (SR leukemia): > 100 µM | TGI (UO-31 renal): > 100 µM | TGI (RXF 393 renal): 79.4 µM | TGI (SW-620 colon): > 100 µM | TGI (HOP-62 NSCLC): > 100 µM | TGI (SNB-75 CNS): > 100 µM | TGI (BT-549 breast): > 100 µM | TGI (COLO 205 colon): > 100 µM | TGI (M14 melanoma): > 100 µM | TGI (MCF7 breast): > 100 µM | TGI (A498 renal): > 100 µM | TGI (SK-MEL-2 melanoma): > 100 µM | TGI (HCT-15 colon): > 100 µM | TGI (HCT-116 colon): > 100 µM | TGI (HOP-92 NSCLC): > 100 µM | TGI (SN12C renal): > 100 µM | TGI (EKVX NSCLC): > 100 µM | TGI (RPMI-8226 leukemia): > 100 µM | TGI (NCI-H23 lung): > 100 µM | TGI (OVCAR-8 ovarian): > 100 µM | TGI (ACHN renal): > 100 µM | TGI (CCRF-CEM leukemia): > 100 µM | TGI (HS 578T breast): > 100 µM | TGI (PC-3 prostate): > 100 µM | TGI (TK-10 renal): > 100 µM | TGI (NCI-H522 lung): > 100 µM | TGI (KM12 colon): > 100 µM | TGI (MDA-N): > 100 µM | TGI (HT29 colon): > 100 µM | TGI (U251 CNS): > 100 µM | TGI (MALME-3M melanoma): > 100 µM | TGI (K-562 leukemia): > 100 µM | TGI (T-47D breast): > 100 µM | TGI (LOX IMVI melanoma): > 100 µM | TGI (786-0 renal): > 100 µM | TGI (OVCAR-5 ovarian): > 100 µM | TGI (OVCAR-4 ovarian): > 100 µM | TGI (CAKI-1 renal): > 100 µM | TGI (SF-539 CNS): > 100 µM | TGI (UACC-257 melanoma): > 100 µM | TGI (UACC-62 melanoma): > 100 µM | TGI (IGROV1 ovarian): > 100 µM | TGI (SNB-19 CNS): > 100 µM | TGI (DU-145 prostate): > 100 µM | TGI (MOLT-4 leukemia): > 100 µM
